According to patent US10947185B2, “Crystal form of dezocine and preparation method therefor” (priority 2017, dated 2021):
In brackets after ≈: the same amount, converted by molar mass. Like-named read-outs stand apart in the source and are kept apart here.

What was measured:
[1] = relative to Dolantin; cited from earlier work
[2] = Stability test: changes of related substances over 6 months; assay type: physicochemical
Description: iii. Compared with the sample of crystal Form I of dezocine, the new crystal form of dezocine prepared according to the present application has better stability, and changes of the related substances within the new crystal form of dezocine over 6 months are as follows: […]

[3] = Solubility test in 0.1 mol/L hydrochloric acid solution; assay type: physicochemical; conditions: for solubility: 50 mg sample

SMILES | Analgesic intensity, onset time, duration of action and maximum analgesic effect, stronger than those of Dolantin [1] | Related substances ([2]; 0 days) | Related substances ([2]; 1 month) | Related substances ([2]; 3 months) | Related substances ([2]; 6 months) | solubility [3] | Solubility increase compared with crystal Form I of dezocine [3] | solubility ([3]; simulated gastric fluid, thermodynamic from solid, read-out: Solubility)
C[C@@]12CCCCC[C@@H](Cc3ccc(O)cc31)[C@@H]2N (relative stereo) [Dezocine, (−)-[5R-(5α,11α,13S*)]-13-amino-5,6,7,8,9,10,11,12-octahydro-5-methyl-5,11-methanobenzocy clodecen-3-ol] | 5-9 times | – | – | – | – | – | – | –
C[C@@]12CCCCC[C@@H](Cc3ccc(O)cc31)[C@@H]2N (relative stereo) [Example 1, (−)-[5R-(5α,11α,13S*)]-13-amino-5,6,7,8,9,10,11,12-octahydro-5-methyl-5,11-methanobenzocy clodecen-3-ol] | – | 0.06% | 0.07% | 0.10% | 0.13% | – | – | –
C[C@@]12CCCCC[C@@H](Cc3ccc(O)cc31)[C@@H]2N (relative stereo) [Example 2, (−)-[5R-(5α,11α,13S*)]-13-amino-5,6,7,8,9,10,11,12-octahydro-5-methyl-5,11-methanobenzocy clodecen-3-ol] | – | 0.07% | 0.09% | 0.10% | 0.12% | – | – | –
C[C@@]12CCCCC[C@@H](Cc3ccc(O)cc31)[C@@H]2N (relative stereo) [Example 3, (−)-[5R-(5α,11α,13S*)]-13-amino-5,6,7,8,9,10,11,12-octahydro-5-methyl-5,11-methanobenzocy clodecen-3-ol] | – | 0.04% | 0.05% | 0.8% | 0.10% | – | – | –
C[C@@]12CCCCC[C@@H](Cc3ccc(O)cc31)[C@@H]2N (relative stereo) [Example 4, (−)-[5R-(5α,11α,13S*)]-13-amino-5,6,7,8,9,10,11,12-octahydro-5-methyl-5,11-methanobenzocy clodecen-3-ol] | – | 0.06% | 0.08% | 0.10% | 0.12% | – | – | –
C[C@@]12CCCCC[C@@H](Cc3ccc(O)cc31)[C@@H]2N (relative stereo) [Example 5, (−)-[5R-(5α,11α,13S*)]-13-amino-5,6,7,8,9,10,11,12-octahydro-5-methyl-5,11-methanobenzocy clodecen-3-ol] | – | 0.04% | 0.06% | 0.07% | 0.09% | – | – | –
C[C@@]12CCCCC[C@@H](Cc3ccc(O)cc31)[C@@H]2N (single isomer, unassigned) [Crystal Form I of dezocine, (−)-[5R-(5α,11α,13S*)]-13-amino-5,6,7,8,9,10,11,12-octahydro-5-methyl-5,11-methanobenzocy clodecen-3-ol, reference compound] | – | 0.08% | 0.15% | 0.21% | 0.28% | 25 mg/mL (≈ 102 mM) | – | –
C[C@@]12CCCCC[C@@H](Cc3ccc(O)cc31)[C@@H]2N (single isomer, unassigned) [Crystal Form II of dezocine, (−)-[5R-(5α,11α,13S*)]-13-amino-5,6,7,8,9,10,11,12-octahydro-5-methyl-5,11-methanobenzocy clodecen-3-ol] | – | – | – | – | – | – | about 32% | 33 mg/mL (≈ 134 mM)
